*1 amine or outer side, *2 acyl side, *3 side chain or, on linkers, in order; H or OH if unused. Where a SMILES comes first, the peptide text is derived from it. Bridges are numbered along the chain shown (N, C = ends). Roman numbers before positions name the chains, in order. [ ]: non-standard residue; d: D form. Actinocin(9to1) = Cc1c2oc3c(C)ccc(C(=O)[*:1])c3nc-2c(C(=O)[*:2])c(N)c1=O; NMeV = CN[C@H](C(=O)O)C(C)C; Sar = CNCC(=O)O
System: c-MYC SPEARs
Assay: qRT-PCR / strand-specific qRT-PCR of c-MYC SPEARs
Format: cell-based, human
Details: for response of total c-MYC SPEARs: HL-60 released from double thymidine block, 2 hrs, MG149 200 μM, TH1834 500 μM; for c-MYC SPEARs level upon transcription inhibitors: HL-60, DRB and ActD, FIG. 10C
Procedure: Total RNA isolation was carried out and all RNA samples used in this study were treated with DNase I (10 U of DNase I per 3 μg of total RNA; 37° C. for one hour; in the presence of RNase inhibitor). After DNase I treatment, RNA samples were extracted with acidic phenol (pH 4.3) to eliminate any remaining traces of DNA. cDNA syntheses were performed with Random Primers (Invitrogen) or gene-specific primers with Transcriptor Reverse Transcriptase (Roche Applied Science) according to the manufacturer's recommendation. cDNA was purified with a High Pure PCR Product Purification Kit (Roche Applied Science).
Sybr green reaction was performed using iQ Sybr Green supermix (Biorad, Hercules, CA) using the following parameters: 95° C. (10 min), 40 cycles of 95° C. (15 s) and 60° C. (1 min) 72° C. (1 min). TaqMan analysis was performed using Hotstart Probe One-step qRT-PCR master mix (USB) at the following conditions: 50° C. (10 min.), 95° C. (2 min.), and then 40 cycles of 95° C. (15 sec.) and 60° C. (60 sec.).
Primers used for strand-specific real-time RT PCR (Sybr): Reverse Transcriptase primer for c-MYC SPEARs: 5′-AACCGCATCCTTGTCCTGTGAGTA-3′ (SEQ ID NO: 1); PCR primers: Forward: 5′-ACAGGCAGACACATCTCAGGGCTA-3′ (SEQ ID NO: 2); Reverse: 5′-ATAGGGAGGAATGATAGAGGCATA-3′ (SEQ ID NO: 3); and Reverse Transcriptase primer for PU1 SPEARs: 5′-GGCTTTTGCTCTAACCCAAC-3′ (SEQ ID NO: 4); PCR primers: Forward: 5′-ACTATGCTGAAGACCCTACAC-3′ (SEQ ID NO: 5); Reverse: 5′-GCTCTAACCCAACAAATGCC-3′ (SEQ ID NO: 6).
Nascent RNA/DNA capture was performed using Click-iT Nascent RNA Capture Kit (ThermoFisher) according to the manufacturer's instructions with minor modifications. Briefly, 1. Labeling the cells with EU/EdU. 200 mM EU or 30 mM EdU stock solutions were added to the cells, to a final concentration 0.5 mM or 30 μM, respectively. 2. Incubation. The cells were incubated for 1 or 2 hours. 3. RNA/DNA isolation. The cells were harvested and the RNA/DNA were isolated and dissolved in 14 μL of H2O. 4. Biotinylation of RNA/DNA by Click reaction. Click-iT reaction cocktail (50 μL per reaction) was prepared accordingly to manufacturer's instructions: a mixture containing 1× Click-iT EU buffer; 2 mM CuSO4; 1 mM Biotin azide; 13.25 μL of the isolated RNA; 10 mM Click-iT reaction buffer additive 1; 12 mM Click-iT reaction buffer additive 2 was prepared. After adding each component, the reaction cocktail was gently mixed by vortexing. The addition of the Click-iT reaction buffer additive 1 stock initiates the click reaction between the EU-RNA/EdU-DNA and biotin azide. Afterwards the Click-iT® reaction buffer additive 2 is added and incubated for 30 minutes with gentle vortexing. 5. RNA/DNA precipitation. […]

SMILES | response of total c-MYC SPEARs | c-MYC SPEARs level upon transcription inhibitors
CCCCCCCc1ccc(CCc2cccc(O)c2C(=O)O)cc1 [MG149] | not affected | –
Cc1c2oc3c(C)ccc(C(=O)N[C@@H]4C(=O)N[C@H](C(C)C)C(=O)N5CCC[C@H]5C(=O)N(C)CC(=O)N(C)[C@@H](C(C)C)C(=O)O[C@@H]4C)c3nc-2c(C(=O)N[C@@H]2C(=O)N[C@H](C(C)C)C(=O)N3CCC[C@H]3C(=O)N(C)CC(=O)N(C)[C@@H](C(C)C)C(=O)O[C@@H]2C)c(N)c1=O [ActD, Actinomycin D] (I: T[dV]P[Sar][NMeV] / II: T[dV]P[Sar][NMeV]; ester I:1-I:C, II:1-II:C; linker I:N-II:N via Actinocin(9to1)) | – | negatively affected
O=C(O)Cn1nnc(-c2ccc(CN(CCCCOc3ccc(CN4CCCC4)cc3)CCc3ccccc3)cc2)n1 [TH1834] | not affected | –
OC[C@H]1O[C@@H](n2cnc3cc(Cl)c(Cl)cc32)[C@H](O)[C@@H]1O [DRB, 5,6-Dichlorobenzimidazole 1-β-D-ribofuranoside] | – | negatively affected
